Tests used:
[1] = Pichia membrane flotation assay, control membranes; format: binding, Pichia pastoris; conditions: membranes from yeast not expressing ORAI1
Method: A membrane flotation assay was used to evaluate binding of these recombinant STIM 1 proteins to ORAI1. For these experiments ORAI1 (65-301) was expressed, an N-terminally truncated ORAI1 protein that forms functional Ca^2+ channels in mammalian cells (Li, Z., et al., J Biol Chem 282, 29448-29456 (2007)), in the yeast Pichia pastoris. Microsomal membranes were prepared from P pastoris expressing ORAI1 (65-301), layered at the bottom of a discontinuous sucrose gradient, and centrifuged. After centrifugation, the recombinant ORAI 1 was recovered near the top of the gradient in the fraction visually identified as containing membranes (FIG. 2A), as expected for an integral membrane protein.
Microsomal membranes, prepared from yeast Pichia pastoris expressing human ORAI1 (65-301) with an N-terminal FLAG tag and the substitutions E106Q and N223A, were resuspended in 10 mM HEPES pH 7.4, 150 mM NaCl, 1 mM DTT, 10% glycerol, briefly sonicated, brought to 25 mM EDTA by addition of EDTA from a concentrated stock, layered over a 0.5 M sucrose cushion, and centrifuged at 149,000×g for 1 h at 4° C. in a Beckman airfuge. […] FLAG-tagged ORAI1 was detected using anti-FLAG M2 monoclonal antibody (Sigma) and His-tagged STIM1^CT fragments were detected using anti-His-Tag monoclonal antibody (27E8 clone, Cell Signaling Technology).

[2] = molecular target: ORAI1 (E106Q) (Homo sapiens, UniProt Q96D31, E106Q); test: Cameleon D3 cpV intravesicular Ca^2+ assay, vesicles with ORAI1 (E106Q); format: biochemical; set-up: the ORAI functional fragment is ORAI1 (65-301), ORAI1 (65-87), or full length ORAI1; made in house; host or cells: S. cerevisiae NY17 (sec6-4), isolated secretory vesicles; conditions: vesicles containing ORAI1 (E106Q)
Source text: Confirmation that Ca^2+ release from the vesicles was due to gating of the ORAI 1 channel was sought. […] It was concluded that the in vitro assay reflects STIM 1-dependent gating of ORAI1 and Ca^2+ flux through the ORAI1 channel pore.
The yeast expression vector pBEVY-GU60 allows for simultaneous expression of two transgenes by means of the bidirectional GAL1-10 promoter. The FRET-based calcium sensors D3 cpV and D4 cpV53 were fused at the N-terminus with the S. cerevisiae α-mating factor secretion signal (Bitter, G. A., et al., Proc Natl Acad Sci USA 81, 5330-5334 (1984)), which directs proteins into the secretory pathway, and introduced into pBEVY-GU in the following way. Vector pPIC9 (Invitrogen) served as template for PCR amplification of the α-mating factor secretion signal (5′ primer: […] (SEQ ID NO: 2); 3′ primer: […] (SEQ ID NO: 3)), introducing an EcoRI site at the 5′ end, and a sequence complementary to that encoding the N-terminus of the calcium sensor at the 3′ end. DNA encoding the N-terminal portion of the calcium sensor D3 cpV, comprising CFP, was amplified by PCR (5′ primer: […] (SEQ ID NO: 4); 3′ primer: […] (SEQ ID NO: 5)), introducing an SphI site followed by a stop codon and a NotI site at the 3′ end of the resulting DNA fragment. […]

Sequence of ORAI1 (E106Q) (Q96D31 2-301 E106Q): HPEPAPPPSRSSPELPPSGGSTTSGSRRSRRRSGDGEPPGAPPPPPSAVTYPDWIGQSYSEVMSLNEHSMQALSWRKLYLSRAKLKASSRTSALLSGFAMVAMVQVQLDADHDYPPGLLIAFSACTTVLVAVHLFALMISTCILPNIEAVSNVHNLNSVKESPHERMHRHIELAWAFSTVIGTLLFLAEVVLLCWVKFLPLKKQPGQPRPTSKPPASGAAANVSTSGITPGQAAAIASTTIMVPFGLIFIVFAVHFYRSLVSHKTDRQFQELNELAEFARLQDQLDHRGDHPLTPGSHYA

STIM1^CT: cytoplasmic region of STIM1, mouse residues 233-685, His-tagged recombinant protein expressed in E coli
position in gradient with control membranes [1]: remained at the bottom of the gradient
Ca^2+ release from vesicles [2]: did not elicit Ca^2+ release
